Tested on: IL-2 production in Jurkat cell
Test: Jurkat IL-2 Production Assay
Format: cell-based
Details: Homo sapiens, Jurkat cell (ATCC), 18-20 h incubation, serum/stimulant condition (1% FBS/PHA or 30% FBS/PMA-ionomycin) not given
Method: Jurkat IL-2 Production Assay
Jurkat cell (ATCC) was grown in RPMI 1640 with 10% FBS and 1% penicillin/streptomycin. The cell density was kept at 1.2˜1.8×10^6/mL in culture flask before seeding into culture plate, and the cell density in the plate was 0.5×10^6/[…]/well.
RPMI 1640 with 1% FBS or 30% FBS for high serum assay.
serial dilution was done in 100% DMSO, and intermediate dilution was done with RPMI 1640 medium with 1% FBS. The DMSO final concentration in culture well was 0.25%.
PHA (Sigma#L9017-10MG) was used for the assay with 1% FBS in culture medium, and added after 10 minutes exposure of cell to compound/DMSO. The PHA final concentration in culture well was 5 μg/mL. PMA (Sigma# P-8139 5MG)/Ionomycin (Sigma# I0634-5MG) was used for the assay with 30% FBS in culture medium, and added at same time point as the 1% FBS culture assay. The final concentration of PMA was 50 ng/mL, and Ionomycin final concentration was 500 ng/mL.
at 37° C. with 5% CO2 and 95% humidity for 18 h ˜20 h.
IC50 was calculated with the data analysis software XLfit4, General Pharmacology model 251.

| SMILES | IC50 |
| --- | --- |
| Cc1cc(Cl)ncc1-c1ccc2[nH]c(-c3c(F)cccc3Cl)cc2n1 [Example 2, 2-(2-Chloro-6-fluoro-phenyl)-5-(6-chloro-4-methyl-pyridin-3-yl)-1H-pyrrolo[3,2b]pyridine] | 246 nM |
| Cn1nc(C(F)(F)F)cc1-c1ccc2[nH]c(-c3c(F)cccc3Cl)cc2n1 [Example 3, 2-(2-Chloro-6-fluoro-phenyl)-5-(2-methyl-5-trifluoromethyl-2H-pyrazol-3-yl)-1H-pyrrolo[3,2-b]pyridine] | 94 nM |
| Cc1cc(C(F)(F)F)ccc1-c1ccc2[nH]c(-c3c(F)cccc3Cl)cc2n1 [Example 4, 2-(2-chloro-6-fluorophenyl)-5-(2-methyl-4-(trifluoromethyl)phenyl)-1H-pyrrolo[3,2-b]pyridine] | 80 nM |
| Cc1cc(C#N)ccc1-c1ccc2[nH]c(-c3c(F)cccc3Cl)cc2n1 [Example 5, 4-(2-(2-chloro-6-fluorophenyl)-1H-pyrrolo[3,2-b]pyridin-5-yl)-3-methylbenzonitrile] | 347 nM |
| Cc1cc(S(=O)(=O)N(C)C)ccc1-c1ccc2[nH]c(-c3c(F)cccc3Cl)cc2n1 [Example 6, 4-(2-(2-chloro-6-fluorophenyl)-1H-pyrrolo[3,2-b]pyridin-5-yl)-N,N,3-trimethylbenzenesulfonamide] | 92 nM |
| Cc1cc(S(=O)(=O)N(C)C)ccc1-c1ccc2[nH]c(-c3ccccc3Cl)cc2n1 [Example 7, 4-[2-(2-Chloro-phenyl)-1H-pyrrolo[3,2-b]pyridin-5-yl]-3,N,N-trimethyl-benzenesulfonamide] | 300 nM |
| Cn1nc(C(F)(F)F)cc1-c1ccc2[nH]c(-c3ccc(F)cc3Cl)cc2n1 [Example 8, 2-(2-Chloro-4-fluoro-phenyl)-5-(2-methyl-5-trifluoromethyl-2H-pyrazol-3-yl)-1H-pyrrolo[3,2-b]pyridine] | 147 nM |
| Cc1cc(S(=O)(=O)N(C)C)ccc1-c1ccc2[nH]c(-c3ccc(F)cc3Cl)cc2n1 [Example 9, 4-[2-(2-Chloro-4-fluoro-phenyl)-1H-pyrrolo[3,2-b]pyridin-5-yl]-3,N,N-trimethyl-benzenesulfonamide] | 98 nM |
| Cc1cc(S(=O)(=O)N(C)C)ccc1-c1ccc2[nH]c(-c3c(F)cccc3F)cc2n1 [Example 10, 4-[2-(2,6-Difluoro-phenyl)-1H-pyrrolo[3,2-b]pyridin-5-yl]-3,N,N-trimethyl-benzenesulfonamide] | 134 nM |
| Cc1cc(C#N)ccc1-c1ccc2[nH]c(-c3c(F)cccc3F)cc2n1 [Example 11, 4-[2-(2,6-Difluoro-phenyl)-1H-pyrrolo[3,2-b]pyridin-5-yl]-3-methyl-benzonitrile] | 767 nM |
| Cn1nc(C(F)(F)F)cc1-c1ccc2[nH]c(-c3c(F)cccc3F)cc2n1 [Example 12, 2-(2,6-Difluoro-phenyl)-5-(2-methyl-5-trifluoromethyl-2H-pyrazol-3-yl)-1H-pyrrolo[3,2-b]pyridine] | 200 nM |
| COc1cc(F)c(-c2cc3nc(-c4ccc(S(=O)(=O)N(C)C)cc4C)ccc3[nH]2)c(F)c1 [Example 13, 4-(2-(2,6-difluoro-4-methoxyphenyl)-1H-pyrrolo[3,2-b]pyridin-5-yl)-N,N,3-trimethylbenzenesulfonamide] | 169 nM |

Reference: US20130158066A1, “4-AZAINDOLE INHIBITORS OF CRAC” (Hoffmann-La Roche Inc., priority 2011, published 2013)
